The test system of one series is CD-1 pregnant mice. Kind of series: Minimal effective dose of mifepristone to induce PTB. The format is in vivo, mouse. The note with it: s.c. on day 15 of pregnancy.
Series [1] relates to mifepristone-induced mouse model of PTB. The settings on record: mifepristone 150 μg; prior study; cited from earlier work.
The subject of series [2] is primary aortic vascular smooth muscle cells (VSMCs). Description: Ca2+-mobilization assay, concentration-response. Type of series: cell-based, human.
The nature of series [3]: Human plasma protein binding. The format is in vitro ADME.
Series [4] can be described thus: Intrinsic clearance in liver microsomes. The format is in vitro ADME. The settings on record: human.
Another series relates to myometrial cells. Kind of series: Combination high-throughput Ca2+-mobilization assay. The settings on record: for synergy in combination Ca2+-mobilization assay: 8 x 8 dose matrices, Combenefit.
Series [5] can be described thus: Intrinsic clearance in liver microsomes. The format is in vitro ADME. The settings on record: rat.
A short description of series [6]: In vitro therapeutic index. The note with it: smallest cell viability IC50 among the three cell types / Ca2+ assay IC50.
The test system of the next series is primary myometrial cells. Kind of series: Ca2+-mobilization assay, concentration-response. Type of series: cell-based. The settings on record: Homo sapiens, read-out: Emax, Myometrial, inhibition of Ca2+-mobilization.
A short description of series [7]: Intrinsic clearance in liver microsomes. Type of series: in vitro ADME. The settings on record: mouse.
A further series can be described thus: MDCK permeability. The settings on record: dog. The format is in vitro ADME.
The next series is described as follows: Solubility. Type of series: physicochemical.
For series [8], the system named is mifepristone-induced mouse model of PTB. Kind of series: In vivo therapeutic efficacy in mifepristone-induced mouse model of PTB.
In another series the test system is mouse myometrial tissue. Kind of series: Ex vivo isometric myometrial contractility organ bath assay. The settings on record: for Emax: read-out: Emax, inhibition of myometrial contractions; for IC50: read-out: IC50, inhibition of myometrial contractions.
A further series deals with human myometrial tissue. The description is as above. The note with it: read-out: Emax, inhibition of myometrial contractions.

≈ marks a conversion by molar mass, not a printed value.

Regarding `CC#C[C@]1(O)CC[C@H]2[C@@H]3CCC4=CC(=O)CCC4=C3[C@@H](c3ccc(N(C)C)cc3)C[C@@]21C` [mifepristone], the “lowest dose required for 100% PTB rates” value in the series with CD-1 pregnant mice was determined as 30 µg.
On to `COC(=O)C1=C(C)NC(C)=C(C(=O)OC)C1c1ccccc1[N+](=O)[O-]` [nifedipine], for which the “delivery occurring post-mifepristone administration” value in series [1] is not above 25 h.
Consider `COc1c(-c2coc3cc4c(cc3c2=O)CC(O)C(C)(C)O4)ccc2c1C=CC(C)(C)O2` (stereo not drawn) [Mundulone, mundulone], for which the “IC50, Fold difference” value in series [2] (aorta VSMCs vs myometrial cells) stood at 2. Also, the fraction unbound in series [3] was 0.007. For the same compound, the microsomal CLint in [4] was less than 20 µL/min/mg; in [5], 30.7 µL/min/mg; in series [7] it was 47.1 µL/min/mg. The “synergy in combination Ca2+-mobilization assay” value in the series with myometrial cells was “displayed synergism with atosiban and nifedipine”. Besides, the “fold improvement of efficacy in combination vs single-agent” value in the series on myometrial cells (in combination with atosiban) is reported as 2 fold; in the series with myometrial cells (in combination with nifedipine), 6 fold. Besides, the “fold enhancement in potency in combination” value with myometrial cells (in combination with nifedipine) is 2–3 fold. In the series on myometrial cells (with either atosiban (FR 3.7:1) or nifedipine (FR 1:4.4)), the “fold improvement of potency in combination vs single-agent” value is 2–3 fold. Also, the “TI (therapeutic index)” value in series [6] is 0.8. Moreover, the values for the Emax in the series on primary myometrial cells, in the series on mouse myometrial tissue and in the series with human myometrial tissue were 80.5%, 70% and 57%, respectively. The compound further showed a Papp in the series “MDCK permeability” of 49.4 ×10⁻⁶ cm/s. In addition, the solubility in “Solubility” was in the range of 21 to 40 µM (≈ 9.12 to 17.4 µg/mL). In series [8] (30 μg mifepristone, 6.5, 13, or 26 mg/kg twice daily s.c., dose-dependently, p = 0.0457), the timing of delivery entry is reported as “delayed the timing of delivery”. For the same compound, the mortality in [8] (26 mg/kg twice daily until the evening of day 17, 30 μg mifepristone) was determined as 100%. In series [8] (single-agent, twice daily), the “signs of impaired health or mortality in treated mice” value was “did not show signs of impaired health or mortality until treated with 26 mg/kg twice daily for two days”. In the series on mouse myometrial tissue, the IC50 stood at 10 µM.
As for `COc1c(-c2coc3cc4c(cc3c2=O)CC(OC(C)=O)C(C)(C)O4)ccc2c1C=CC(C)(C)O2` (stereo not drawn) [MA, mundulone acetate], in [2] (myometrial cells vs aorta VSMCs), the “Emax, % difference” value amounted to 70%. In series [3], this compound displayed a fraction unbound of 0.001. In addition, the microsomal CLint in series [4] came to 27.2 µL/min/mg; in series [5] it was 586 µL/min/mg; in series [7], 886 µL/min/mg. For the same compound, the “synergy in combination Ca2+-mobilization assay” value with myometrial cells was “exhibited synergistic efficacy with only nifedipine”. The “fold enhancement in potency in combination” value with myometrial cells (in combination with nifedipine) is given as 2–3 fold. Also, the “fold improvement of efficacy in combination vs single-agent” value in the series on myometrial cells (in combination with nifedipine) is on record as 6 fold. In series [6], the “TI (therapeutic index)” value is 8.8. The Emax is 44.5% with primary myometrial cells and 27% in the series on mouse myometrial tissue. Also, in the series “MDCK permeability”, the Papp came out at 22.1 ×10⁻⁶ cm/s. In “Solubility”, the solubility was in the range of 11 to 20 µM. The IC50 in the series with mouse myometrial tissue is more than 100 µM.

Source of the values: article PMC10712649 (Pharmacological research, 2023).
